According to patent publication US20260286287A1, “NOVEL BACTERIAL STRAIN USEFUL FOR TREATING CUTANEOUS INFLAMMATION” (PIERRE FABRE DERMO-COSMETIQUE, priority 2023, published 2026):

Key:
bacterial strain LMB275 = assay: Sensitivity of the bacterial strain to antibiotics, disc diffusion method; type: cell-based, Aquabacterium strain LMB275; conditions: modified R2A agar, 48 and 72 h at 30° C.
Protocol: The sensitivity of the bacterial strain to antibiotics was tested by the disc diffusion method after spreading cell suspensions (8.0 McFarland) on modified R2A agar plates. The antibiotics and their concentration used on filter-paper discs for the susceptibility assay are listed in the species definition. The effect of antibiotics on cell growth was assessed after 48 and 72 h at 30° C.

[1] = test system: normal human epidermal keratinocytes (NHEK) stimulated by an inflammatory cytokine mix (IL-4+IL-13+IL-22+TNF-α); assay: Gene expression (RT-qPCR) in cytokine-stimulated normal human epidermal keratinocytes, in vitro model of chronic atopic dermatitis; type: cell-based
Protocol: The effects of the bacterial extracts prepared in example 3 (i.e., L0, BL0, S0 and ES0) on gene expression were assessed with normal human epidermal keratinocytes (NHEK) which have been stimulated by an inflammatory cytokine mix (IL-4+IL-13+IL-22+TNF-α), a particularly useful model representative of the chronic phase of atopic dermatitis.
Keratinocytes were seeded in 24-well plates and grown for 24 hours in growth medium with culture conditions at 37° C. and 5% C02. The growth medium comprised Keratinocyte SFM (Serum Free Medium) supplemented with Epidermal Growth Factor (EGF) 0.25 ng/ml, Pituitary extract (PE) 25 μg/ml and Gentamycin 25 μg/ml. The medium was then removed and replaced by assay medium containing either no added extract or compound (negative control), one of the bacterial extracts of example 3 (L0, BL0, S0 or ES0), or the reference compound (JAK Inhibitor | at 10 μM). Cells were then pre-incubated for 24 hours. The assay medium comprised Keratinocyte SFM supplemented with Gentamycin 25 μg/ml.
After pre-incubation, the assay medium was renewed, the mix of cytokines (IL-4+IL-13+TNF-α +IL-22, each at 10 ng/ml) added and the cells then incubated for 24 hours. Cytokine stimulation induces a phenotype in NHEK which is similar to the one observed during the chronic phase of atopic dermatitis (Bernard et al., 2012). In parallel, non-stimulated controls are performed.
All experiments were performed in triplicate (n=3).
Cells from the replicates of the same experimental condition were pooled.
Total RNA was extracted with TriPure Isolation Reagent® (Roche Molecular System Inc.) according to the supplier's instruction. The complementary DNA (cDNA) was synthetised by reverse transcription of total RNA in presence of oligo (dT) and Transcriptor Reverse Transcriptase (Roche Molecular System Inc.).
RT-qPCR (real time quantitative PCR) was used to analyse the expression of markers in total RNA extracted from the cell monolayers of each experimental condition. The LightCycler® system (Roche Molecular System Inc.) was used according to the supplier's instruction,
Two reference genes (GAPDH and RPS28) were used in the PCR array for data normalisation because of their constitutive expression. Consequently, the level of expression of the target markers was compared to the mean expression level of these 2 markers for all test conditions.
Different genes markers are reported: • barrier function, differentiation, lipid and desquamation markers: coding gene of Small Proline Rich Protein 1B (SPRR1B), coding gene of Kallikrein Related Peptidase 7 (KLK7), coding gene of Involucrin (IVL), coding gene of Caspase 14 (CASP14), coding gene of Sciellin (SCEL) and coding gene of sulfotransferase family, cytosolic, 2B, member 1 (SULT2B1); • antimicrobial and innate immunity markers: coding gene of serpin peptidase inhibitor, clade B, member 13 (SERPINB13), coding gene of calcium binding protein A7 (S100A7), coding gene of Toll-like receptor 2 (TLR2); • inflammation markers: coding gene of Chemokine (C-C motif) ligand 5 (CCL5), coding gene of Chemokine (C-C motif) ligand 27 (CCL27) and coding gene of interleukin 13 receptor, alpha 2 (IL13RA2).

[2] = NHEK, cytokine mix 10 ng/ml + JAK inhibitor I 10 μM, Mean HK normalisation
[3] = NHEK, cytokine mix 10 ng/ml + JAK inhibitor I 10 μM, Mean HK normalisation, 1440 min
[4] = cytokine-stimulated NHEK, JAK inhibitor I 10 μM
[5] = cytokine-stimulated NHEK, JAK inhibitor I 10 μM, listed as JAK Inhibitor I

CO/N=C(\C(=O)N[C@@H]1C(=O)N2C(C(=O)O)=C(COC(C)=O)CS[C@H]12)c1csc(N)n1 [cefotaxim]
sensitivity of the bacterial strain to the antibiotic (bacterial strain LMB275; disc 30 μg): resistant

CC1COc2c(N3CCN(C)CC3)c(F)cc3c(=O)c(C(=O)O)cn1c23 (centres unmarked) [ofloxacin]
sensitivity of the bacterial strain to the antibiotic (bacterial strain LMB275; disc 5 μg): sensitive

CC1(C)S[C@@H]2[C@H](NC(=O)[C@H](N)c3ccc(O)cc3)C(=O)N2[C@H]1C(=O)O [amoxicillin]
sensitivity of the bacterial strain to the antibiotic (bacterial strain LMB275; disc 30 μg): resistant

CC1(C)S[C@@H]2[C@H](NC(=O)[C@H](N)c3ccccc3)C(=O)N2[C@H]1C(=O)O [ampicillin]
sensitivity of the bacterial strain to the antibiotic (bacterial strain LMB275; disc 10 μg): resistant

O=C(N[C@H](CO)[C@H](O)c1ccc([N+](=O)[O-])cc1)C(Cl)Cl [chloramphenicol]
sensitivity of the bacterial strain to the antibiotic (bacterial strain LMB275; disc 30 μg): sensitive

CC(C)(C)c1nc2c3cc[nH]c(=O)c3c3cc(F)ccc3c2[nH]1 [JAK inhibitor I]
SPRR1B gene expression [1, 2]: 557 % control
SULT2B1 gene expression [1, 2]: 231 % control
CASP14 gene expression [1, 3]: 199 % control
CCL5 gene expression [1, 3]: 23 % control
CCL27 gene expression [1, 3]: 72 % control
IL13RA2 gene expression [1, 3]: 12 % control
IVL gene expression [1, 3]: 986 % control
KLK7 gene expression [1, 3]: 146 % control
S100A7 gene expression [1, 3]: 94 % control
SCEL gene expression [1, 3]: 141 % control
SERPINB13 gene expression [1, 3]: 27 % control
TLR2 gene expression [1, 3]: 21 % control
expression of antimicrobial and innate immunity markers (in words) [1, 4]: decrease
expression of inflammation markers (in words) [1, 4]: decrease
expression of keratinocyte differentiation markers (in words) [1, 4]: increase
expression of antimicrobial and innate immunity markers (in words) [1, 5]: down-regulating
expression of inflammation markers (in words) [1, 5]: down-regulating

O=C(O)c1cn(C2CC2)c2cc(N3CCNCC3)c(F)cc2c1=O [ciprofloxacin]
sensitivity of the bacterial strain to the antibiotic (bacterial strain LMB275; disc 5 μg): sensitive

CN[C@H](CC(C)C)C(=O)N[C@H]1C(=O)N[C@@H](CC(N)=O)C(=O)N[C@H]2C(=O)N[C@H]3C(=O)N[C@H](C(=O)N[C@H](C(=O)O)c4cc(O)cc(O)c4-c4cc3ccc4O)[C@H](O)c3ccc(c(Cl)c3)Oc3cc2cc(c3O[C@@H]2O[C@H](CO)[C@@H](O)[C@H](O)[C@H]2O[C@H]2C[C@](C)(N)[C@H](O)[C@H](C)O2)Oc2ccc(cc2Cl)[C@H]1O [vancomycin]
sensitivity of the bacterial strain to the antibiotic (bacterial strain LMB275; disc 30 μg): sensitive

polymixin B
sensitivity of the bacterial strain to the antibiotic (bacterial strain LMB275; disc 300 UI): resistant

[H]/N=C(/N)N[C@H]1[C@H](O)[C@@H](O)[C@H](O[C@@H]2O[C@@H](C)[C@](O)(C=O)[C@H]2O[C@@H]2O[C@@H](CO)[C@H](O)[C@@H](O)[C@@H]2NC)[C@@H](N/C(N)=N\[H])[C@@H]1O [streptomycin]
sensitivity of the bacterial strain to the antibiotic (bacterial strain LMB275; disc 10 μg): sensitive

CC1(C)S[C@@H]2[C@H](NC(=O)Cc3ccccc3)C(=O)N2[C@H]1C(=O)O [penicillin]
sensitivity of the bacterial strain to the antibiotic (bacterial strain LMB275; disc 10 UI): resistant

CN(C)[C@@H]1C(=O)C(C(N)=O)=C(O)[C@@]2(O)C(=O)C3=C(O)c4c(O)cccc4[C@@](C)(O)[C@H]3C[C@@H]12 [tetracyclin]
sensitivity of the bacterial strain to the antibiotic (bacterial strain LMB275; disc 30 μg): sensitive

CC[C@H]1OC(=O)[C@H](C)[C@@H](O[C@H]2C[C@@](C)(OC)[C@@H](O)[C@H](C)O2)[C@H](C)[C@@H](O[C@@H]2O[C@H](C)C[C@H](N(C)C)[C@H]2O)[C@](C)(O)C[C@@H](C)C(=O)[C@H](C)[C@@H](O)[C@]1(C)O [erythromycin]
sensitivity of the bacterial strain to the antibiotic (bacterial strain LMB275; disc 15 μg): sensitive

C[C@@H](O)[C@H]1C(=O)N2C(C(=O)O)=C(SCCN=CN)C[C@H]12 [imipenem]
sensitivity of the bacterial strain to the antibiotic (bacterial strain LMB275; disc 10 μg): sensitive

NC[C@H]1O[C@H](O[C@H]2[C@H](O)[C@@H](O[C@H]3O[C@H](CO)[C@@H](O)[C@H](N)[C@H]3O)[C@H](N)C[C@@H]2N)[C@H](O)[C@@H](O)[C@@H]1O [kanamycin]
sensitivity of the bacterial strain to the antibiotic (bacterial strain LMB275; disc 30 μg): sensitive

CO[C@H]1/C=C/O[C@@]2(C)Oc3c(C)c(O)c4c(O)c(c(/C=N/N5CCN(C)CC5)c(O)c4c3C2=O)NC(=O)/C(C)=C\C=C\[C@H](C)[C@H](O)[C@@H](C)[C@@H](O)[C@@H](C)[C@H](OC(C)=O)[C@@H]1C [rifampicin]
sensitivity of the bacterial strain to the antibiotic (bacterial strain LMB275; disc 30 μg): sensitive
